Literature values in patent US20200061095A1, “Compounds for the Treatment of Systemic Insulin Resistance Disorders and the Use Thereof” (Galectin Sciences, LLC, priority 2017, published 2020).

Legend:
lung fibrosis = conditions: pulmonary administration, intra-tracheal instillation or nebulizers
Galectin 3 = Galectin 3 (Homo sapiens, UniProt P17931); conditions: reported
Sequence of Galectin 3 (P17931 whole entry, species assumed): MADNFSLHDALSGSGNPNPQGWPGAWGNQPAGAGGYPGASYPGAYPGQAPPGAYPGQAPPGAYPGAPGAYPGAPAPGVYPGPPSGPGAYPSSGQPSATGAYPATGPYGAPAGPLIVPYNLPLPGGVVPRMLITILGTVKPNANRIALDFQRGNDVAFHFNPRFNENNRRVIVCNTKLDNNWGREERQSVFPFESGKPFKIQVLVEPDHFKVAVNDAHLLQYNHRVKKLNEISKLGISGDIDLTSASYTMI

- binding to Galectin 3 (Galectin 3): bind to Galectin 3
Structure (SMILES): OC[C@H]1O[C@@H](S[C@@H]2O[C@H](CO)[C@H](O)[C@H](n3cc(-c4cccc(F)c4)nn3)[C@H]2O)[C@H](O)[C@@H](n2cc(-c3cccc(F)c3)nn2)[C@H]1O [TD-139]
- efficacy in mouse model of lung fibrosis (lung fibrosis): effective
